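Briefly, cells in 96-well plates were exposed to five compound concentrations for 48 h, and endpoints were estimated by linear interpolation. Abbreviation: GI50, concentration required for 50% inhibition of growth.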 The source made the active and inactive calls. Rule as the data show it: active = GI50 up to about 1.1 µM and inactive = higher.
Experiments:
Assay in all cases: NCI anticancer screen, dose series, 48 h
[1] = system: 786-0
[2] = system: A549
[3] = system: CAKI-1
[4] = system: CCRF-CEM
[5] = system: DMS-114
[6] = system: HOP-92
[7] = system: HT-29
[8] = system: KM12
[9] = system: MOLT-4
[10] = system: SF-268
[11] = system: SK-MEL-28
[12] = system: SK-MEL-5
[13] = system: SN12C
[14] = system: SNB-19
[15] = system: SR
[16] = system: SW-620
[17] = system: UO-31

SMILES | GI50 [1] | GI50 [2] | GI50 [3] | GI50 [4] | GI50 [5] | GI50 [6] | GI50 [7] | GI50 [8] | GI50 [9] | GI50 [10] | GI50 [11] | GI50 [12] | GI50 [13] | GI50 [14] | GI50 [15] | GI50 [16] | GI50 [17]
C1COCCSC2=C(SCCO1)SC(=C1SC3=C(SCCOCCOCCS3)S1)S2 | 45.8 µM (inactive) | > 100 µM (inactive) | > 100 µM (inactive) | > 100 µM (inactive) | 63.5 µM (inactive) | 44.7 µM (inactive) | > 100 µM (inactive) | > 100 µM (inactive) | > 100 µM (inactive) | 51.1 µM (inactive) | > 100 µM (inactive) | > 100 µM (inactive) | > 100 µM (inactive) | 73.8 µM (inactive) | 66.4 µM (inactive) | > 100 µM (inactive) | > 100 µM (inactive)
O=C(O)\C=C/C=C/C=C/C=C/C(=O)O | > 100 µM (inactive) | > 100 µM (inactive) | > 100 µM (inactive) | > 100 µM (inactive) | > 100 µM (inactive) |  | > 100 µM (inactive) | > 100 µM (inactive) | > 100 µM (inactive) | > 100 µM (inactive) | > 100 µM (inactive) | > 100 µM (inactive) | > 100 µM (inactive) | > 100 µM (inactive) | > 100 µM (inactive) | > 100 µM (inactive) | > 100 µM (inactive)
CC1=C(C(=O)Nc2ccc(Cl)c(Cl)c2)C(c2ccco2)C(C(=O)Nc2ccc(Cl)c(Cl)c2)=C(C)N1 | 13 µM (inactive) | 12.5 µM (inactive) | 14 µM (inactive) | 6.58 µM (inactive) | 9.16 µM (inactive) | 15.8 µM (inactive) | 14.4 µM (inactive) | 13.4 µM (inactive) | 4.98 µM (inactive) | 11.4 µM (inactive) | 11.7 µM (inactive) | 13.7 µM (inactive) | 11.6 µM (inactive) | 12.7 µM (inactive) | 10.6 µM (inactive) | 14.6 µM (inactive) | 10.1 µM (inactive)
Nc1cc2c(C3OC(CO)C(O)C3O)n[nH]c2c(=S)[nH]1 (stereo not drawn) | > 100 µM (inactive) | > 100 µM (inactive) | 54.3 µM (inactive) | > 100 µM (inactive) | > 100 µM (inactive) | > 100 µM (inactive) | > 100 µM (inactive) | > 100 µM (inactive) | > 100 µM (inactive) | > 100 µM (inactive) | > 100 µM (inactive) | > 100 µM (inactive) | > 100 µM (inactive) | > 100 µM (inactive) | > 100 µM (inactive) | > 100 µM (inactive) | > 100 µM (inactive)
Cc1ccc(C)c(N2C(=O)C(=O)C(c3nc4ccccc4s3)/C(=N/NC(=O)NN)C2=O)c1 (stereo not drawn) | > 100 µM (inactive) | > 100 µM (inactive) | > 100 µM (inactive) | > 100 µM (inactive) | > 100 µM (inactive) | > 100 µM (inactive) | > 100 µM (inactive) | > 100 µM (inactive) | > 100 µM (inactive) | > 100 µM (inactive) | > 100 µM (inactive) | > 100 µM (inactive) | > 100 µM (inactive) | > 100 µM (inactive) | > 100 µM (inactive) | > 100 µM (inactive) | > 100 µM (inactive)
N#Cc1sc2nc3c(c(-c4ccccc4)c2c1N)CCCC3 | 46 µM (inactive) | > 100 µM (inactive) | > 100 µM (inactive) | > 100 µM (inactive) | 0.225 µM (active) | 30.1 µM (inactive) | > 100 µM (inactive) | > 100 µM (inactive) | > 100 µM (inactive) |  | > 100 µM (inactive) |  | > 100 µM (inactive) | 56.8 µM (inactive) | > 100 µM (inactive) | > 100 µM (inactive) | > 100 µM (inactive)
CC(=O)OCC1OC(n2cc(I)c(=O)[nH]c2=O)C(OC(C)=O)C(OC(C)=O)C1OC(C)=O (stereo not drawn) | > 100 µM (inactive) | > 100 µM (inactive) | > 100 µM (inactive) | > 100 µM (inactive) | > 100 µM (inactive) | > 100 µM (inactive) | > 100 µM (inactive) | > 100 µM (inactive) | > 100 µM (inactive) | > 100 µM (inactive) | > 100 µM (inactive) | > 100 µM (inactive) | > 100 µM (inactive) | > 100 µM (inactive) | > 100 µM (inactive) | > 100 µM (inactive) | > 100 µM (inactive)
COC1OC(C)C(OCc2ccccc2)C(OS(=O)(=O)c2ccc(C)cc2)C1OS(=O)(=O)c1ccc(C)cc1 (stereo not drawn) | > 100 µM (inactive) | > 100 µM (inactive) | 53.5 µM (inactive) | > 100 µM (inactive) | > 100 µM (inactive) |  | > 100 µM (inactive) | > 100 µM (inactive) | > 100 µM (inactive) | > 100 µM (inactive) | > 100 µM (inactive) | > 100 µM (inactive) | > 100 µM (inactive) | > 100 µM (inactive) | > 100 µM (inactive) | > 100 µM (inactive) | > 100 µM (inactive)
CC1=NN(C(=O)CC(=O)NC(=O)CC(=O)Nc2ccccc2F)C(=O)C1/N=N/c1ccc([N+](=O)[O-])cc1 (stereo not drawn) | 27.7 µM (inactive) | 35 µM (inactive) | 63.1 µM (inactive) | 33.3 µM (inactive) | 21.1 µM (inactive) | 51.4 µM (inactive) | 19.8 µM (inactive) | 56.1 µM (inactive) | 39.3 µM (inactive) | 82.2 µM (inactive) | > 100 µM (inactive) | 44.4 µM (inactive) | > 100 µM (inactive) | 60.1 µM (inactive) |  | 20 µM (inactive) | 26.7 µM (inactive)
CCCCOC(=O)NC(=O)c1cn(CCCOC(=O)NCCCCCCNC(=O)OCCCn2cc(C(=O)NC(=O)OCCCC)c(=O)[nH]c2=O)c(=O)[nH]c1=O | > 100 µM (inactive) | > 100 µM (inactive) |  |  | > 100 µM (inactive) | 23.6 µM (inactive) | > 100 µM (inactive) | > 100 µM (inactive) |  | > 100 µM (inactive) | > 100 µM (inactive) | > 100 µM (inactive) | > 100 µM (inactive) | 48.4 µM (inactive) | > 100 µM (inactive) | > 100 µM (inactive) | > 100 µM (inactive)
CC12C=C[C@]3(CC[C@@H]4[C@@](C)(CO)CCC[C@]4(C)C3CC1)C2 (stereo partly drawn) | 16 µM (inactive) | 18.2 µM (inactive) | 12.8 µM (inactive) | 19.9 µM (inactive) | 15.5 µM (inactive) | > 47.3 µM (inactive) | 17.8 µM (inactive) | > 44.9 µM (inactive) | 23.6 µM (inactive) | 17.9 µM (inactive) | 19.2 µM (inactive) |  | 18.2 µM (inactive) | 19.6 µM (inactive) | 16 µM (inactive) | 17.6 µM (inactive) | 17.8 µM (inactive)
CC(c1ccccc1)N1O[C@]12CC[C@@]1(C)C(CCCC13OCCO3)C2 (stereo partly drawn) | 19.4 µM (inactive) | 24.5 µM (inactive) | 22.2 µM (inactive) |  | 13.4 µM (inactive) | 11.1 µM (inactive) | 21.7 µM (inactive) | 21.3 µM (inactive) |  | 43.6 µM (inactive) | 47.8 µM (inactive) | 36.1 µM (inactive) | 29 µM (inactive) | > 100 µM (inactive) | 16.7 µM (inactive) | 16.7 µM (inactive) | 18 µM (inactive)
